Converted amounts (≈) assume the structure as drawn. Read-outs that look alike come from different tables or passages of the source.
Columns and labels:
[1] = test system: MDCK monolayers
[2] = partition coefficient; assay type: physicochemical
[3] = aqueous solubility (concentration at saturation); assay type: physicochemical; settings: water, read-out: Conc. at Saturation

SMILES	flux over one hour ([1]; MDCK monolayers, 60-minute period, share of the amount added that crossed to the other side)	logP ([2]; studies in the laboratory)	solubility [3] [mg/mL]	flux over one hour ([1]; MDCK)	logP [2]
CN(CC(=O)O)C(=N)N.O [creatine monohydrate, reference compound]	approximately 10%	-1.82			
CCOC(=O)CN(C)C(=N)N [Creatine Ethyl Ester, creatine ethyl ester]			205.9 ± 1.5 (≈ 1290 mM)	approximately 20%	-1.13
CN(CC(=O)OCc1ccccc1)C(=N)N [Creatine Benzyl Ester, creatine benzyl ester]			89.26 ± 0.8 (≈ 403 mM)		-0.975
